Source: patent publication US20110021507A1, “INHIBITING ANTIPSYCHOTIC-INDUCED WEIGHT GAIN” (Theracos, Inc., priority 2009, published 2011)

Experiments:
[1] = Olanzapine-induced weight gain in a rat model (Alzet minipumps); type: in vivo, Wistar-Han female rats; conditions: OLZ 10 mg/kg/day; for effect on weight gain (main effect of Treatment, 2-way repeated measures ANOVA): OLZ vs VEH p=0.042, OLZ vs OLZ+TZP p=0.01, TZP 5 mg/kg/day
Method: Arrow indicates pump implantation and solid bar over the x-axis indicates the drug treatment interval. Telenzepine was administered at a dose of 5 mg/kg/day. […] The solid line indicates the effect of OLZ administered alone (OLZ-Induced weight gain), while dashed lines indicate groups receiving TZP, either alone (dashed line) or co-administered with the 10.0 mg/kg OLZ dose (dot-dash-dot line). The dotted line indicates the weight gain in animals receiving only Vehicle treatments. […] The rats were divided into the following four groups: Group 1—Control: Vehicle (NMP:DMSO:PEG) alone Group 2—OLZ (10 mg/kg/day) alone Group 3—TZP (5 mg/kg/day) alone Group 4—OLZ (10 mg/kg/day)+TZP (5 mg/kg/day) […] Two 2-way repeated measures ANOVAs were run: 1) Comparing No Treatment (VEH) to OLZ alone (addressing the question of whether or not OLZ induced weight gain), 2) Comparing OLZ alone to OLZ+TZP (addressing the question of whether or not TZP co-administration prevented OLZ-Induced weight gain).

[2] = at 90 degrees; cited from earlier work
cortical receptors = conditions: cited from earlier work
cardiac receptors = conditions: cited from earlier work
muscarinic receptor = conditions: cited from earlier work
[3] = patients being administered olanzapine; cited from earlier work

For `Cc1scc2c1N(C(=O)CN1CCN(C)CC1)c1ccccc1NC2=O` [Telenzepine, 4,9-Dihydro-3-methyl-4-[(4-methyl-1-piperazinyl)acetyl]-10H-thieno[3,4-b][1,5]benzodiazepin-10-one], the “effect on weight gain (main effect of Treatment, 2-way repeated measures ANOVA)” value [1] is listed as “significant reduction in OLZ-induced weight gain” and the “half time of interconversion of the two forms” value [2] is listed as “approximately 200 hours”.

In the case of `Cc1scc2c1N(C(=O)CN1CCN(C)CC1)c1ccccc1NC2=O` [(+) form of telenzepine], the “factor by which the (+) form is more effective than the (−) isomer” value (cortical receptors) is listed as 400, the “factor by which the (+) form is more potent than the (−) form” value (cardiac receptors) is listed as 50 and the antimuscarinic activity (muscarinic receptor) is listed as “potent antimuscarinic activity”.

For `Cc1cc2c(s1)Nc1ccccc1N=C2N1CCN(C)CC1` [Olanzapine, 2-methyl-4-(4-methyl-1-piperazinyl)-10H-thieno[2,3-b][1,5]benzodiazepine], the “effect on weight gain (main effect of Treatment, 2-way repeated measures ANOVA)” value [1] is listed as “induced a significant amount of weight gain over No Treatment controls”, the “difference in weight gain versus Vehicle treated rats” value ([1]; Treatment Day 12 (peak OLZ-induced gain), TZP 5 mg/kg/day by minipump) is listed as 6.2% and the “patients experiencing bodyweight gain of greater than 7%” value [3] is listed as no more than 30%.

For `Cc1scc2c1N(C(=O)CN1CCN(C)CC1)c1ccccc1NC2=O` [(−) form], the antimuscarinic activity (muscarinic receptor) is given as “considerably less active”.
